Consider 1 molecule from patent US12077503B2, “Substituted cyclic amides and their use as herbicides” (FMC CORPORATION, priority 2015, dated 2024).

Assay type in all cases: in vivo
Experiment [1] relates to corn (Zea mays). Kind of experiment: Test A postemergence. The settings on record: Zea mays, post-emergence, 240 h, 125 g ai/ha, postemergence; visual injury after approximately 10 d; 0 to 100 scale (0 no effect, 100 complete control). The method in brief:
(§1)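 Visual injury, scored on a 0–100 scale relative to untreated controls, was recorded about 10 d after application. Treatments were a preemergence soil spray over planted seeds or a postemergence spray on plants at the one- to two-leaf stage, 2 to 10 cm tall, all in loam soil–sand blend in the greenhouse.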

Experiment [2] relates to Kochia (Kochia scoparia). Kind of experiment: Test A postemergence. The note with it: Bassia scoparia, post-emergence, 240 h, 125 g ai/ha, postemergence; visual injury after approximately 10 d; 0 to 100 scale (0 no effect, 100 complete control); read-out: Plant response rating, Kochia. The method in brief: as §1
Experiment [3] relates to blackgrass (Alopecurus myosuroides). Put plainly: Test A postemergence. The settings on record: Alopecurus myosuroides, post-emergence, 240 h, 125 g ai/ha, postemergence; visual injury after approximately 10 d; 0 to 100 scale (0 no effect, 100 complete control); read-out: Plant response rating, Blackgrass. The method in brief:
as §1

In experiment [4] the test system is wheat (Triticum aestivum). Kind of experiment: Test A postemergence. The note with it: Triticum aestivum, post-emergence, 240 h, 125 g ai/ha, postemergence; visual injury after approximately 10 d; 0 to 100 scale (0 no effect, 100 complete control); read-out: Plant response rating, Wheat. An outline of the steps: as §1
In experiment [5] the test system is ryegrass, Italian (Italian ryegrass, Lolium multiflorum). Kind of experiment: Test A postemergence. The settings on record: Lolium multiflorum, post-emergence, 240 h, 125 g ai/ha, postemergence; visual injury after approximately 10 d; 0 to 100 scale (0 no effect, 100 complete control); read-out: Plant response rating, Ryegrass, Italian. An outline of the steps: as §1

In experiment [6] the test system is pigweed (Amaranthus retroflexus). Put plainly: Test A postemergence. The note with it: Amaranthus retroflexus, post-emergence, 240 h, 125 g ai/ha, postemergence; visual injury after approximately 10 d; 0 to 100 scale (0 no effect, 100 complete control); read-out: Plant response rating, Pigweed. An outline of the steps:
as §1

The subject of experiment [7] is Galium (catchweed bedstraw, Galium aparine). Put plainly: Test A postemergence. The settings on record: Galium, post-emergence, 240 h, 125 g ai/ha, postemergence; visual injury after approximately 10 d; 0 to 100 scale (0 no effect, 100 complete control); read-out: Plant response rating, Galium. The method in brief: as §1
Experiment [8] deals with ragweed (common ragweed, Ambrosia elatior). Put plainly: Test A postemergence. The note with it: Ambrosia artemisiifolia, post-emergence, 240 h, 125 g ai/ha, postemergence; visual injury after approximately 10 d; 0 to 100 scale (0 no effect, 100 complete control); read-out: Plant response rating, Ragweed. The method in brief: as §1
In experiment [9] the test system is barnyardgrass (Echinochloa crus-galli). Kind of experiment: Test A postemergence. The note with it: Echinochloa crus-galli, post-emergence, 240 h, 125 g ai/ha, postemergence; visual injury after approximately 10 d; 0 to 100 scale (0 no effect, 100 complete control); read-out: Plant response rating, Barnyardgrass. An outline of the steps:
as §1

Experiment [10] deals with giant foxtail (Setaria faberii). Kind of experiment: Test A postemergence. The settings on record: Setaria faberi, post-emergence, 240 h, 125 g ai/ha, postemergence; visual injury after approximately 10 d; 0 to 100 scale (0 no effect, 100 complete control); read-out: Plant response rating, Foxtail, Giant. An outline of the steps:
as §1

Experiment [11] deals with Kochia (Kochia scoparia). Kind of experiment: Test A preemergence. The settings on record: Bassia scoparia, pre-emergence, 240 h, preemergence, read-out: Plant response rating, Kochia. An outline of the steps:
as §1

Experiment [12] deals with ryegrass, Italian (Italian ryegrass, Lolium multiflorum). Put plainly: Test A preemergence. The note with it: Lolium multiflorum, pre-emergence, 240 h, preemergence, read-out: Plant response rating, Ryegrass, Italian. The method in brief: as §1
For experiment [13], the system named is pigweed (Amaranthus retroflexus). Kind of experiment: Test A preemergence. The settings on record: Amaranthus retroflexus, pre-emergence, 240 h, preemergence, read-out: Plant response rating, Pigweed.
Experiment [14] deals with ragweed (common ragweed, Ambrosia elatior). Put plainly: Test A preemergence. The settings on record: Ambrosia artemisiifolia, pre-emergence, 240 h, preemergence, read-out: Plant response rating, Ragweed. The method in brief: as §1
Experiment [15] relates to giant foxtail (Setaria faberii). Kind of experiment: Test A preemergence. The settings on record: Setaria faberi, pre-emergence, 240 h, preemergence, read-out: Plant response rating, Foxtail, Giant. The method in brief:
as §1

Where [16] appears, read: 125 g ai/ha, visual rating after approx. 10 d, 0 to 100 scale where 0 is no effect and 100 is complete control.
Setting [17] is: 500 g ai/ha, 0 to 100 scale, 0 = no effect, 100 = complete control.

In the case of `CN1C[C@H](c2ccc(C(F)(F)F)cc2)[C@@H](C(=O)Nc2ccccc2C(F)(F)F)C1=O` [Compound 726], in [1], the Corn plant response rating (crop injury, 0 = no effect, 100 = complete kill) at 125 g/ha turned out to be 60%. The pest or weed control at 125 g/ha came out at 30% in [2]; 50% in experiment [3]; 40% in experiment [5]; 50% in experiment [6]; 50% in experiment [7]; 30% in experiment [8]. For the same molecule, the pest or weed control at 125 g/ha in [9] turned out to be 90%; in experiment [10], 90%; in experiment [11] (setting [16]) it was 70%; in [12] (setting [16]), 50%; in [13] (setting [16]) it was 80%; in experiment [14] (setting [16]), 30%. Further, the pest or weed control at 125 g/ha in [15] (setting [16]) is 90%. For the same molecule, the plant injury at 125 g/ha in experiment [4] was determined as 30%. In addition, the pest or weed control at 500 g/ha stood at 90% in experiment [11] (setting [17]); 80% in experiment [12] (setting [17]); 90% in [13] (setting [17]); 50% in experiment [14] (setting [17]); 90% in experiment [15] (setting [17]).
